Results on three compounds are retold here after US20160022714A1, “O-GLCNACYLATION TREATMENT FOR ISCHEMIC BRAIN INJURY” (THE RESEARCH FOUNDATION FOR MENTAL HYGIENE, INC., priority 2014, published 2016).

Assay [1] relates to O-GlcNAcylation of brain proteins. Put plainly: Western blots for O-GlcNAcylation of brain (striatum) homogenates from drug-treated mice 2 hrs after MCAO. In kind it is in vivo, mouse. To be noted: for brain O-GlcNAcylation level (change): mice treated prior to ischemia: DON 2.6 μg/mouse, glucosamine 10 mg/mouse, thiamet-G 160 μg/mouse, brain samples 2 hrs after ischemic insult.

In assay [2] the test system is MCAO mouse model (cerebral ischemia-reperfusion injury). Put plainly: Brain infarct size by TTC staining after MCAO for 2 hrs followed by reperfusion for 24 hrs. It is filed as in vivo. The note with it: vs. saline; for infarct size / ischemia-induced brain damage: DON 2.6 μg/mouse, glucosamine 10 mg/mouse, thiamet-G 160 μg/mouse prior to ischemia, 24 hrs after ischemia-reperfusion.

Assay [3] has the same test system. Put plainly: Scores of motor deficits (5-point neurological scoring) after MCAO for 2 hrs and reperfusion for 1 hr. In kind it is in vivo. The note with it: vs. saline.
The mark [4] stands for this setting: DON 2.6 μg/mouse, glucosamine 10 mg/mouse, thiamet-G 160 μg/mouse prior to ischemia, one hour after ischemia-reperfusion.

SMILES strings stand for the structures. Entries after “also recorded” stand apart in the source; their conditions may differ.

For `[N-]=[N+]=CC(=O)CC[C@H](N)C(=O)O` [DON, 6-diazo-5-oxonorleucine], the “brain O-GlcNAcylation level (change)” value in assay [1] was “reduction; also recorded: reduced”. Also, the “infarct size / ischemia-induced brain damage” value in assay [2] is “aggravated; also recorded: increased”. Further, the motor deficits entry in assay [3] (setting [4]) is on record as “aggravated; also recorded: increased”.

In the case of `N[C@H]1C(O)O[C@H](CO)[C@@H](O)[C@@H]1O` (stereo partly shown) [glucosamine], the “brain O-GlcNAcylation level (change)” value in assay [1] was “moderate elevation”. Further, the “infarct size / ischemia-induced brain damage” value in assay [2] was “ameliorated; also recorded: reduced”. In assay [3] (setting [4]), the motor deficits entry is “ameliorated; also recorded: reduced”.

Turning to `CCN=C1N[C@@H]2[C@@H](O)[C@H](O)[C@@H](CO)O[C@@H]2S1` [thiamet-G], the “brain O-GlcNAcylation level (change)” value in assay [1] is on record as “elevation”. Also, the “elevation of O-GlcNAcylation” value in assay [1] (thiamet-G 0.1 μg/mouse, icy injection 24 hrs before MCAO, compared with 10 mg glucosamine/mouse i.p.) is recorded as “comparable elevation”; in assay [1] (thiamet-G initial dose 160 μg/mouse, 2 hrs after MCAO), above 6 fold. Also, in assay [2], the “infarct size / ischemia-induced brain damage” value was “more severe brain damage; also recorded: worsened”. Besides, the infarct size result in assay [2] (thiamet-G 0.1 μg/mouse, icy injection, MCAO 2 hrs, reperfusion 24 hrs) was “reduced”. Moreover, the motor deficits result is “more severe; also recorded: worsened” in assay [3] (setting [4]) and “reduced” in assay [3] (thiamet-G 0.1 μg/mouse, icy injection, MCAO 2 hrs, reperfusion 1 hr).
